Results as given in patent publication US20050137239A1, “Thiazole derivatives” (priority 2003, published 2005).

How the values were obtained:
[1] = test system: AGE formation; assay: AGE formation inhibition: protein and sugar incubated at 37° C., gel formation; conditions: control tube forms a gel
Method: This example describes the efficacy of a compound of the invention for inhibiting AGE formation.
A control tube, containing protein and sugar, forms a gel with little or no remaining liquid when incubated at 37° C. Such a gel is indicative of extensive crosslinking associated with glycation.

[2] = test system: cross-links representative of AGEs; assay: AGE crosslink breaking, sandwich enzyme-linked immunoabsorbent assay; conditions: pre-formed protein-sugar cross-links in multi-well plates; buffer control
Method: This example describes the efficacy of a compound of the invention for breaking crosslinks associated with AGEs using a sandwich enzyme-linked immunoabsorbent assay.
A mixture of protein and sugar was incubated to form cross-links representative of AGEs and was placed in multi-well plates. The plates were then treated with either 2-amino-4,5-dimethylthiazole HCl or buffer. After treatment, the plates were rinsed to remove any free protein liberated by cross-link breakage. An antibody reactive to the protein was then added to the plates to provide quantitative levels of protein within the plate.

[3] = target: T1, glucose oxidase (Aspergillus niger, UniProt P13006); assay: glucose oxidase inhibition, commercially available glucose oxidase kit; type: biochemical
T1 construct: purchased
T1 sequence (P13006 17-605, species assumed): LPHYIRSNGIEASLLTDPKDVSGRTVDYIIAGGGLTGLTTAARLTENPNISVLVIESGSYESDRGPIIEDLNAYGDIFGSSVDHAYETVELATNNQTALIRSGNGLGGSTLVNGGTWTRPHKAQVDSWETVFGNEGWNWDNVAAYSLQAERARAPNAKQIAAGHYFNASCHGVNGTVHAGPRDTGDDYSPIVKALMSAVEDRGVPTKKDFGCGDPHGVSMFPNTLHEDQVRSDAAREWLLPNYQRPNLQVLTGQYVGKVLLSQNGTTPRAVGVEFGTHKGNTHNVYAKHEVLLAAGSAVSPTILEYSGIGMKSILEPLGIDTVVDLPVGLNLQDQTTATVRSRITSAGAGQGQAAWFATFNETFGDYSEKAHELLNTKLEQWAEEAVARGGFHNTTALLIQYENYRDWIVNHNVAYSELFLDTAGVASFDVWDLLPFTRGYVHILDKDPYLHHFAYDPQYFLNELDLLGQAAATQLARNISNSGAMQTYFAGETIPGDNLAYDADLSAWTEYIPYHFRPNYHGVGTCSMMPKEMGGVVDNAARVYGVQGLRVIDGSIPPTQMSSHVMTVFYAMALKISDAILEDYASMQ
From the text: This example describes the effectiveness of a compound of the invention for inhibiting the enzyme glucose oxidase.
To test the efficacy of 2-amino-4,5-dimethylthiazole HCl for the inhibition of glucose oxidase, a commercially available glucose oxidase kit was used.

SMILES: Cc1nc(N)sc1C.Cl [2-amino-4,5-dimethylthiazole HCl, 2-amino-4,5-dimethylthiazole hydrochloride]
- state of protein and sugar mixture (gel indicates crosslinking associated with glycation) [1]: remained liquid
- antibody bound in the plate as compared to the control plate [2]: less antibody bound
- reduction of production of H2O2 as compared to a control sample [3]: greater than 60%
